Data reported in article PMC9848257, “Design and synthesis of novel rigid dibenzo[b,f]azepines through ring closure technique as promising anticancer candidates against leukaemia and acting as selective topoisomerase II inhibitors and DNA intercalators” (Journal of Enzyme Inhibition and Medicinal Chemistry, 2023).

How the values were obtained:
[1] = test system: SF-295; assay: NCI-60 one-dose screen, SF-295; type: cell-based; conditions: Homo sapiens; SF-295, CNS cancer; single dose 10 μM; read-out: Growth inhibition %
Procedure: (§1) Anti-proliferative effects of the counterparts 4a–g and 5a–g were screened against 60 human cancer cell lines, following the Developmental Therapeutics Program protocol, National Cancer Institute[35].
(§2) The anti-tumour activity of the fourteen synthesised congeners was investigated at the NCI against a panel of 60 cancer cell lines (NCI-60 Cell One-Dose Screen). The tested dibenzo[b,f]azepine derivatives were screened at a single dose level (10 μM), Table 1.

[2] = test system: K-562; assay: NCI-60 one-dose screen, K-562; type: cell-based; conditions: Homo sapiens, K562; K-562, leukaemia; single dose 10 μM; read-out: Growth inhibition %
Procedure: as §1, §2

[3] = test system: EKVX; assay: NCI-60 one-dose screen, EKVX; type: cell-based; conditions: Homo sapiens, non-small cell lung cancer, single dose 10 μM, read-out: Growth inhibition %
Procedure: as §1, §2

[4] = test system: NCI-H322M; assay: NCI-60 one-dose screen, NCI-H322M; type: cell-based; conditions: Homo sapiens, non-small cell lung cancer, single dose 10 μM, read-out: Growth inhibition %
Procedure: as §1, §2

[5] = test system: ACHN; assay: NCI-60 one-dose screen, ACHN; type: cell-based; conditions: Homo sapiens, renal cancer, single dose 10 μM, read-out: Growth inhibition %
Procedure: as §1, §2

[6] = test system: KM12; assay: NCI-60 one-dose screen, KM12; type: cell-based; conditions: Homo sapiens; KM12, colon cancer; single dose 10 μM; read-out: Growth inhibition %
Procedure: as §1, §2

[7] = test system: SR; assay: NCI-60 one-dose screen, SR; type: cell-based; conditions: Homo sapiens, leukaemia, single dose 10 μM, read-out: Growth inhibition %
Procedure: as §1, §2

[8] = test system: SK-MEL-5; assay: NCI-60 one-dose screen, SK-MEL-5; type: cell-based; conditions: Homo sapiens; SK-MEL-5, melanoma; single dose 10 μM; read-out: Growth inhibition %
Procedure: as §1, §2

[9] = test system: OVCAR-3; assay: NCI-60 one-dose screen, OVCAR-3; type: cell-based; conditions: Homo sapiens; OVCAR-3, ovarian cancer; single dose 10 μM; read-out: Growth inhibition %
Procedure: as §1, §2

[10] = test system: MOLT-4; assay: NCI-60 one-dose screen, MOLT-4; type: cell-based; conditions: Homo sapiens; MOLT-4, leukaemia; single dose 10 μM; read-out: Growth inhibition %
Procedure: as §1, §2

[11] = test system: 786-0; assay: NCI-60 one-dose screen, 786-0; type: cell-based; conditions: Homo sapiens; 786-0, renal cancer; single dose 10 μM; read-out: Growth inhibition %
Procedure: as §1, §2

[12] = test system: SF-268; assay: NCI-60 one-dose screen, SF-268; type: cell-based; conditions: Homo sapiens; SF-268, CNS cancer; single dose 10 μM; read-out: Growth inhibition %
Procedure: as §1, §2

[13] = test system: HOP-92; assay: NCI-60 one-dose screen, HOP-92; type: cell-based; conditions: Homo sapiens; HOP-92, non-small cell lung cancer; single dose 10 μM; read-out: Growth inhibition %
Procedure: as §1, §2

[14] = test system: PC-3; assay: NCI-60 one-dose screen, PC-3; type: cell-based; conditions: Homo sapiens; PC-3, prostate cancer; single dose 10 μM; read-out: Growth inhibition %
Procedure: as §1, §2

[15] = test system: UACC-62; assay: NCI-60 one-dose screen, UACC-62; type: cell-based; conditions: Homo sapiens; UACC-62, melanoma; single dose 10 μM; read-out: Growth inhibition %
Procedure: as §1, §2

[16] = test system: NCI/ADR-RES; assay: NCI-60 one-dose screen, NCI/ADR-RES; type: cell-based; conditions: Homo sapiens, ovarian cancer, single dose 10 μM, read-out: Growth inhibition %
Procedure: as §1, §2

[17] = test system: MALME-3M; assay: NCI-60 one-dose screen, MALME-3M; type: cell-based; conditions: Homo sapiens, melanoma, single dose 10 μM, read-out: Growth inhibition %
Procedure: as §1, §2

[18] = test system: SK-OV-3; assay: NCI-60 one-dose screen, SK-OV-3; type: cell-based; conditions: Homo sapiens; SK-OV-3, ovarian cancer; single dose 10 μM; read-out: Growth inhibition %
Procedure: as §1, §2

[19] = test system: MDA-MB-468; assay: NCI-60 one-dose screen, MDA-MB-468; type: cell-based; conditions: Homo sapiens; MDA-MB-468, breast cancer; single dose 10 μM; read-out: Growth inhibition %
Procedure: as §1, §2

[20] = test system: RPMI-8226; assay: NCI-60 one-dose screen, RPMI-8226; type: cell-based; conditions: Homo sapiens; RPMI-8226, leukaemia; single dose 10 μM; read-out: Growth inhibition %
Procedure: as §1, §2

[21] = test system: HT29; assay: NCI-60 one-dose screen, HT29; type: cell-based; conditions: Homo sapiens, HT-29; HT29, colon cancer; single dose 10 μM; read-out: Growth inhibition %
Procedure: as §1, §2

[22] = test system: CCRF-CEM; assay: NCI-60 one-dose screen, CCRF-CEM; type: cell-based; conditions: Homo sapiens, leukaemia, single dose 10 μM, read-out: Growth inhibition %
Procedure: as §1, §2

[23] = test system: HCT-15; assay: NCI-60 one-dose screen, HCT-15; type: cell-based; conditions: Homo sapiens; HCT-15, colon cancer; single dose 10 μM; read-out: Growth inhibition %
Procedure: as §1, §2

[24] = test system: NCI-H522; assay: NCI-60 one-dose screen, NCI-H522; type: cell-based; conditions: Homo sapiens; NCI-H522, non-small cell lung cancer; single dose 10 μM; read-out: Growth inhibition %
Procedure: as §1, §2

[25] = test system: TK-10; assay: NCI-60 one-dose screen, TK-10; type: cell-based; conditions: Homo sapiens; TK-10, renal cancer; single dose 10 μM; read-out: Growth inhibition %
Procedure: as §1, §2

[26] = test system: UACC-257; assay: NCI-60 one-dose screen, UACC-257; type: cell-based; conditions: Homo sapiens; UACC-257, melanoma; single dose 10 μM; read-out: Growth inhibition %
Procedure: as §1, §2

[27] = test system: DU-145; assay: NCI-60 one-dose screen, DU-145; type: cell-based; conditions: Homo sapiens; DU-145, prostate cancer; single dose 10 μM; read-out: Growth inhibition %
Procedure: as §1, §2

[28] = test system: HOP-62; assay: NCI-60 one-dose screen, HOP-62; type: cell-based; conditions: Homo sapiens; HOP-62, non-small cell lung cancer; single dose 10 μM; read-out: Growth inhibition %
Procedure: as §1, §2

[29] = test system: HS 578 T; assay: NCI-60 one-dose screen, HS 578 T; type: cell-based; conditions: Homo sapiens, breast cancer, single dose 10 μM, read-out: Growth inhibition %
Procedure: as §1, §2

[30] = test system: LOX IMVI; assay: NCI-60 one-dose screen, LOX IMVI; type: cell-based; conditions: Homo sapiens, melanoma, single dose 10 μM, read-out: Growth inhibition %
Procedure: as §1, §2

[31] = test system: SW-620; assay: NCI-60 one-dose screen, SW-620; type: cell-based; conditions: Homo sapiens; SW-620, colon cancer; single dose 10 μM; read-out: Growth inhibition %
Procedure: as §1, §2

[32] = test system: UO-31; assay: NCI-60 one-dose screen, UO-31; type: cell-based; conditions: Homo sapiens; UO-31, renal cancer; single dose 10 μM; read-out: Growth inhibition %
Procedure: as §1, §2

[33] = test system: MCF-7; assay: NCI-60 one-dose screen, MCF-7; type: cell-based; conditions: Homo sapiens, MCF7; MCF-7, breast cancer; single dose 10 μM; read-out: Growth inhibition %
Procedure: as §1, §2

[34] = test system: U251; assay: NCI-60 one-dose screen, U251; type: cell-based; conditions: Homo sapiens, U-251; U251, CNS cancer; single dose 10 μM; read-out: Growth inhibition %
Procedure: as §1, §2

Row | SMILES | inhibition at 10 µM [1] [%] | inhibition at 10 µM [2] [%] | inhibition at 10 µM [3] [%] | inhibition at 10 µM [4] [%] | inhibition at 10 µM [5] [%] | inhibition at 10 µM [6] [%] | melting point [°C] | inhibition at 10 µM [7] [%] | inhibition at 10 µM [8] [%] | inhibition at 10 µM [9] [%] | inhibition at 10 µM [10] [%] | inhibition at 10 µM [11] [%] | inhibition at 10 µM [12] [%] | inhibition at 10 µM [13] [%] | inhibition at 10 µM [14] [%] | inhibition at 10 µM [15] [%] | inhibition at 10 µM [16] [%] | inhibition at 10 µM [17] [%] | inhibition at 10 µM [18] [%] | inhibition at 10 µM [19] [%] | also measured
1 | O=C(NNC(=O)N1c2ccccc2C=Cc2ccccc21)c1ccccc1 [Compound 4a, N′-Benzoyl-5H-dibenzo[b,f]azepine-5-carbohydrazide] | < 10 | < 10 | < 10 | < 10 | < 10 | < 10 | 222 to 224 | < 10 | < 10 | < 10 | < 10 | < 10 | < 10 | < 10 | < 10 | < 10 | < 10 | < 10 | < 10 | < 10 | inhibition at 10 µM [20]: < 10%; inhibition at 10 µM [21]: < 10%; inhibition at 10 µM [22]: < 10%; inhibition at 10 µM [23]: < 10%; inhibition at 10 µM [24]: < 10%; inhibition at 10 µM [25]: < 10%; inhibition at 10 µM [26]: < 10%; inhibition at 10 µM [27]: < 10%; inhibition at 10 µM [28]: < 10%; inhibition at 10 µM [29]: < 10%; inhibition at 10 µM [30]: < 10%; inhibition at 10 µM [31]: < 10%; inhibition at 10 µM [32]: < 10%; inhibition at 10 µM [33]: < 10%; inhibition at 10 µM [34]: < 10%
2 | O=C(NNC(=O)N1c2ccccc2C=Cc2ccccc21)c1ccc(Br)cc1 [Compound 4b, N′-(4-Bromobenzoyl)-5H-dibenzo[b,f]azepine-5-carbohydrazide] | < 10 | < 10 | < 10 | < 10 | 14 | < 10 | 237 to 239 | < 10 | < 10 | < 10 | < 10 | 21.1 | 15.1 | < 10 | < 10 | < 10 | < 10 | < 10 | < 10 | < 10 | inhibition at 10 µM [20]: < 10%; inhibition at 10 µM [21]: < 10%; inhibition at 10 µM [22]: < 10%; inhibition at 10 µM [23]: < 10%; inhibition at 10 µM [24]: < 10%; inhibition at 10 µM [25]: < 10%; inhibition at 10 µM [26]: 14.4%; inhibition at 10 µM [27]: 19.7%; inhibition at 10 µM [28]: < 10%; inhibition at 10 µM [29]: < 10%; inhibition at 10 µM [30]: < 10%; inhibition at 10 µM [31]: 11.8%; inhibition at 10 µM [32]: < 10%; inhibition at 10 µM [33]: < 10%; inhibition at 10 µM [34]: < 10%
3 | O=[N+]([O-])c1ccc(-c2nnc(N3c4ccccc4C=Cc4ccccc43)o2)cc1 [Compound 5e, 2-(5 h-Dibenzo[b,f]azepin-5-yl)-5–(4-nitrophenyl)-1,3,4-oxadiazole] | < 10 | 25.3 | < 10 | 4.97 | < 10 | < 10 | 146 to 148 | 30.1 | 13.7 | < 10 | 19.4 | < 10 | 16.1 | 22.8 | 24.6 | 30 | < 10 | < 10 | < 10 | 11.4 | inhibition at 10 µM [20]: < 10%; inhibition at 10 µM [21]: < 10%; inhibition at 10 µM [22]: < 10%; inhibition at 10 µM [23]: 30.7%; inhibition at 10 µM [24]: 15%; inhibition at 10 µM [25]: < 10%; inhibition at 10 µM [26]: < 10%; inhibition at 10 µM [27]: < 10%; inhibition at 10 µM [28]: < 10%; inhibition at 10 µM [29]: < 10%; inhibition at 10 µM [30]: < 10%; inhibition at 10 µM [31]: < 10%; inhibition at 10 µM [32]: 30.7%; inhibition at 10 µM [33]: 17.4%
